Test results reported in paper PMC12399242 (Acta Pharmaceutica Sinica. B, 2025).
Where two headings read alike, the source gives them in different places.

Key:
[1] = system: HIV-1 (IIIB); conditions: earlier compounds of Fig. 1 / introduction, cited from earlier work
[2] = system: HIV-1 F227L + V106A; assay: microbe, parasite or virus in culture; type: cell-based; conditions: Human immunodeficiency virus 1, MT4, read-out: EC50 F227L + V106A
[3] = system: HIV-1 E138K; assay: Antiviral activity against HIV-1 mutant E138K in MT-4 cells; type: cell-based; conditions: Human immunodeficiency virus 1, MT4, read-out: EC50 E138K
[4] = system: HIV-1 K103N; assay: Antiviral activity against HIV-1 mutant K103N in MT-4 cells; type: cell-based; conditions: Human immunodeficiency virus 1, MT4, read-out: EC50 K103N
[5] = in vitro; conditions: human, CC50
Description: (§1) Inspired by our previous research on heteroaromatic-biphenyl-DAPYs[15], the 4-cyanophenyl group on the biphenyl moiety was replaced with a privileged 4-pyridyl group for further evaluation.

[6] = system: HIV-1 Y181C; assay: Antiviral activity against HIV-1 mutant Y181C in MT-4 cells; type: cell-based; conditions: Human immunodeficiency virus 1, MT4, read-out: EC50 Y181C
[7] = system: HIV-1 K103N + Y181C (RES056); conditions: cited from earlier work
[8] = system: MT-4 cells; conditions: cited from earlier work
[9] = system: HIV-1 K103N + Y181C (RES056); assay: Antiviral activity against HIV-1 double mutant K103N + Y181C (RES056) in MT-4 cells; type: cell-based; conditions: Human immunodeficiency virus 1, MT4, read-out: EC50 K103N + Y181C
[10] = system: HIV-1 (IIIB); assay: microbe, parasite or virus in culture; type: cell-based; conditions: for EC50: Human immunodeficiency virus 1, IIIB, MT4, WT HIV-1, protection of MT-4 cells against HIV-induced cytopathogenicity, mean ± SD, n ≥ 3
Description: as §1

[11] = system: HIV-1 Y188L; conditions: cited from earlier work
[12] = system: HIV-1 L100I; assay: Antiviral activity against HIV-1 mutant L100I in MT-4 cells; type: cell-based; conditions: Human immunodeficiency virus 1, MT4, read-out: EC50 L100I
[13] = system: HIV-1 Y188L; assay: Antiviral activity against HIV-1 mutant Y188L in MT-4 cells; type: cell-based; conditions: Human immunodeficiency virus 1, MT4, read-out: EC50 Y188L
[14] = system: HIV-1 F227L + V106A; conditions: cited from earlier work
[15] = molecular target: CYP3A4-M (Homo sapiens, UniProt P08684); conditions: read-out: IC50 CYP3A4-M; cited from earlier work
[16] = human liver microsomes; cited from earlier work
[17] = comparison values; cited from earlier work

CYP3A4-M, sequence (P08684 whole entry): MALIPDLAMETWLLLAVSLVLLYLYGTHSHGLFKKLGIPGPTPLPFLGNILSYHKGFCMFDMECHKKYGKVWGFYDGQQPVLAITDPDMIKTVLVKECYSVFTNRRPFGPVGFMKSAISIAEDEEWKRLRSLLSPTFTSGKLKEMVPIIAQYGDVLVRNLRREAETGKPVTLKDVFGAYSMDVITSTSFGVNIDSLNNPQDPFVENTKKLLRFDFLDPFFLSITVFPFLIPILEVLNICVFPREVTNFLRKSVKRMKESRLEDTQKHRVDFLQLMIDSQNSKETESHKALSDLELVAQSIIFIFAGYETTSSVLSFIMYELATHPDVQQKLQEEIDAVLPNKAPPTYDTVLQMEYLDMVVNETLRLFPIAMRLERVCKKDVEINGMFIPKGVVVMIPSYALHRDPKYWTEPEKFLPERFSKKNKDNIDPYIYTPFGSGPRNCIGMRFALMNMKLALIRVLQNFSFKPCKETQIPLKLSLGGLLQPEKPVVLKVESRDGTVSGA

SMILES	EC50 [2] [nM]	EC50 [3] [nM]	EC50 [4] [nM]	CC50 [5] [nM]	EC50 [6] [nM]	EC50 [9] [nM]	EC50 [10] [nM]	EC50 [12] [nM]	also measured
Cc1cnc(Nc2ccc(C#N)cc2)nc1Nc1c(F)cc(-c2ccc(C#N)cc2)cc1F [compound 6, reference compound]	> 2000	8.3 ± 1.5	5.4 ± 1.8	> 285000	11 ± 1.9	> 2000	1.4 ± 0.3	16 ± 5.3	EC50 ([1]; WT HIV-1): 1.4 nM; SI [1]: > 208,333; EC50 [7]: > 2000 nM; CC50 ([8]; earlier compounds of Fig. 1 / introduction): > 285000 nM; SI (IIIB) ([10]; selectivity index, ratio CC50/EC50): >208,333; EC50 [11]: > 2000 nM; EC50 [13]: > 2000 nM; EC50 [14]: > 2000 nM
Cc1cc(C#N)cc(C)c1Oc1nc(Nc2ccc(C#N)cc2)nc(N)c1Br [ETR, etravirine, reference compound]	12 ± 9.4	7.6 ± 2.3	2.8 ± 0.7	> 4600	13 ± 2.8	44 ± 23	3.2 ± 0.7	4.4 ± 1.6	IC50 [15]: 41300 nM; CLint(liver) [16]: 19.0 mL/min/kg; CLint(mic) [16]: 21.1 µL/min/mg; t1/2 [16]: 1.09 h; CC50 ([8]; introduction): ~5000 nM; F (oral bioavailability) [17]: undetectable
